Data set [1] concerns Y79 retinoblastoma cells. In words: Cancer cell proliferation, Y79. In kind it is cell-based. How it is done: (§1) To determine the breadth of efficacy in cancers, we examined the efficacy of a range of TRPM7 inhibitors for their ability to inhibit cell proliferation in cancer cell lines. Representative figures are included as examples.
(§2) Cells (Table 1) were grown to 70% confluency, trypsinized, counted, and seeded in 96-well flat-bottom plates at a final concentration of 2.5×10^3-5.0×10^3 cells/well in growth media containing 5% FBS (Day 0). Other well sizes and cell densities were used successfully as well. Cells were allowed to incubate in growth media for 24 hours to allow for maximum adhesion. Treatment with the test agent began on Day 1 and continued for 72 hours either with or without retreatment. At the 72 hour time point, viable cell numbers are quantified by the CellTiter-Glo® cell viability assay as described above, or using standard MTT, SRB or BrDU assays. Experiments were repeated at least twice with the same concentrations to determine growth inhibitory activity.
(§3) Data Collection—For the cell proliferation studies, data from each experiment was collected and expressed as % Cell Growth using the following calculation: % Cell Growth=(ftest/fvehicle)×100 Where ftest is the luminescent signal of the tested sample, and fvehicle is the luminescence of the vehicle in which the drug is dissolved (or appropriate measure for the other viability/proliferation measures). Dose response graphs and IC50 values were generated using standard software using the following variable slope equation: […]

The test system of data set [2] is Y79 retinoblastoma cells. Nature of the data set: Y79 retinoblastoma cells seeded on cultured retinal explants (ex vivo). In kind it is cell-based. How it is done: Retinal explants were surgically dissected and cultured by standard methods. One hundred thousand Y79 retinoblastoma cells were then seeded onto the retinas in culture and allowed to grow for 2 weeks on inserts in the presence or absence of 5 μM M6. Y79 cells were fluorescently labeled and intensity was counted (arbitrary fluorescence units). […] TRPM7 inhibitors may be useful in the reduction of tumor metastasis in addition to either reducing the proliferation or killing of cancer cells. FIG. 78 is a repetition of the experiment, observing the distribution of Y79 cells after 12 days of migration off the retina. The darker bars of each pair indicate fluorescence intensity of cells that have migrated off the retina.

Data set [3] concerns DMS456 lung cancer. In words: Cancer cell proliferation, DMS456. In kind it is cell-based. Conditions: >20% inhibition at 48-96 hours, MTT, SRB, luminescence or BrDU. The procedure: as §1, §2
(§4) Data Collection—For the cell proliferation studies, data from each experiment was collected and expressed as % Cell Growth using the following calculation: % Cell Growth=(ftest/fvehicle)×100 Where ftest is the luminescent signal of the tested sample, and fvehicle is the luminescence of the vehicle in which the drug is dissolved (or appropriate measure for the other viability/proliferation measures). […]

Data set [4] concerns HCT-116 colon cancer. In words: Cancer cell proliferation, HCT-116. In kind it is cell-based. Conditions: for IC50: Homo sapiens. How it is done: as §1, §2, §3
Data set [5] deals with SW13 adrenal carcinoma cells. Nature of the data set: Cancer cell proliferation, SW13. In kind it is cell-based. As to conditions: SW13, FIG. 79. How it is done: as §1, §2, §4
Data set [6] is described as follows: in vivo. As to conditions: mouse, mice, highest dose tested, read-out: maximum tolerated dose.
Data set [7] concerns H292 non small cell lung cancer. In words: Cancer cell proliferation, H292. In kind it is cell-based. Conditions: for IC50: Homo sapiens. How it is done: as §1, §2, §3
Data set [8] concerns the target T1, TRPA1 (Homo sapiens, UniProt O75762).
T1 construct: expressed in transfected cells; host or cells: HEK293
Nature of the data set: Agonist-induced Ca2+ changes in HEK293 cells transfected with TRPA1. In kind it is cell-based. The procedure: (§5) To examine selectivity of a subset of these TRPM7 inhibitors, experiments were performed to determine whether TRPM7 antagonists cross-react with other ionic channels and receptors. […] From a therapeutic perspective, knowledge of cross-reactivity of candidate drugs could shed light on other ischemic mechanisms and raise awareness of potential side effects. M21 has no effect on voltage-sensitive Na+, and Ca2+ currents in cultured cortical neurons […] TRPM7-expressing HEK293 cells, but inhibits K+ currents by about 20% at membrane potentials of −10 mV. M21 had no effect on agonist-induced Ca2+ changes in HEK293 cells transfected with constructs for TRPM2, TRPM4, TRPM6, TRPV1, TRPC2 and TRPA1. M21 also has no effect on NMDA and AMPA receptor currents in cultured neurons. […] Similar experiments were performed with other TRPM7 inhibitors including M5 and M11.

In data set [9] the target is T2, TRPV1 (Homo sapiens, UniProt Q8NER1).
T2 construct: expressed in transfected cells; host or cells: HEK293
Nature of the data set: Agonist-induced Ca2+ changes in HEK293 cells transfected with TRPV1. In kind it is cell-based. How it is done: as §5

For data set [10], the target named is T3, TRPM4 (Homo sapiens, UniProt Q8TD43).
T3 construct: expressed in transfected cells; host or cells: HEK293
In words: Agonist-induced Ca2+ changes in HEK293 cells transfected with TRPM4. In kind it is cell-based. The procedure:
as §5

Data set [11] has as its target TRPM7 (Mus musculus, UniProt Q923J1). In words: IC50 for TRPM7 (assay not stated). Also on record: expressed in transfected cells; host or cells: HEK293 cells, tet-induced TRPM7.
The subject of data set [12] is raised intraocular pressure (IOP). In words: Raised intraocular pressure model of acute glaucoma in rats. In kind it is in vivo, rat. As to conditions: intraocular injection, 80 mm Hg 1 hour, 7-14 days. How it is done: We next tested whether direct intraocular injection of M21 could reduce retinal damage evoked by raising the intraocular pressure (IOP) in rats (80 mm Hg 1 hour; Morrison J C. Elevated intraocular pressure and optic nerve injury models in the rat. J Glaucoma. 2005; 14:315-317). M21 was microinjected into the vitreous humor directly, to control for any blood-brain-barrier penetration issues. […] The compounds of this invention can be used for the treatment of retinal disorders. Preferably these compounds are delivered orally, as an injection (intravenous, intraocular), or administered topically. This model of glaucoma can be used to assess the different routes of administration for these compounds

Data set [13] deals with LAD coronary artery ligation. Nature of the data set: Mouse model of permanent LAD coronary artery ligation (myocardial infarction). In kind it is in vivo. Conditions: single intravenous dose within 15 minutes of LAD occlusion.
Data set [14] addresses T4, TRPC2 (Mus musculus, UniProt Q9R244).
T4 construct: expressed in transfected cells; host or cells: HEK293
Nature of the data set: Agonist-induced Ca2+ changes in HEK293 cells transfected with TRPC2. In kind it is cell-based. How it is done:
as §5

For data set [15], the system named is NMDA receptor. Nature of the data set: NMDA receptor currents in cultured neurons. In kind it is cell-based. The procedure:
as §5

The target in data set [16] is T5, TRPM2 (Homo sapiens, UniProt O94759).
T5 construct: expressed in transfected cells; host or cells: HEK293
Nature of the data set: Agonist-induced Ca2+ changes in HEK293 cells transfected with TRPM2. In kind it is cell-based. How it is done: as §5

The subject of data set [17] is H9c2 cardiomyocytes. In words: Toxicity on H9c2 cardiomyocytes, PI uptake after 72 hours. In kind it is cell-based, rat. The procedure: To differentiate between an anti-proliferative effect of the TRPM7 inhibitors and cellular toxicity, the compounds were added to various ‘non-cancerous’ cell lines at the same concentrations and the percentage of PI uptake was measured after 72 hours.

Molecules are shown by their SMILES. Where two headings read alike, the source gives them in different places.

T4 sequence (Q9R244 whole entry, species assumed): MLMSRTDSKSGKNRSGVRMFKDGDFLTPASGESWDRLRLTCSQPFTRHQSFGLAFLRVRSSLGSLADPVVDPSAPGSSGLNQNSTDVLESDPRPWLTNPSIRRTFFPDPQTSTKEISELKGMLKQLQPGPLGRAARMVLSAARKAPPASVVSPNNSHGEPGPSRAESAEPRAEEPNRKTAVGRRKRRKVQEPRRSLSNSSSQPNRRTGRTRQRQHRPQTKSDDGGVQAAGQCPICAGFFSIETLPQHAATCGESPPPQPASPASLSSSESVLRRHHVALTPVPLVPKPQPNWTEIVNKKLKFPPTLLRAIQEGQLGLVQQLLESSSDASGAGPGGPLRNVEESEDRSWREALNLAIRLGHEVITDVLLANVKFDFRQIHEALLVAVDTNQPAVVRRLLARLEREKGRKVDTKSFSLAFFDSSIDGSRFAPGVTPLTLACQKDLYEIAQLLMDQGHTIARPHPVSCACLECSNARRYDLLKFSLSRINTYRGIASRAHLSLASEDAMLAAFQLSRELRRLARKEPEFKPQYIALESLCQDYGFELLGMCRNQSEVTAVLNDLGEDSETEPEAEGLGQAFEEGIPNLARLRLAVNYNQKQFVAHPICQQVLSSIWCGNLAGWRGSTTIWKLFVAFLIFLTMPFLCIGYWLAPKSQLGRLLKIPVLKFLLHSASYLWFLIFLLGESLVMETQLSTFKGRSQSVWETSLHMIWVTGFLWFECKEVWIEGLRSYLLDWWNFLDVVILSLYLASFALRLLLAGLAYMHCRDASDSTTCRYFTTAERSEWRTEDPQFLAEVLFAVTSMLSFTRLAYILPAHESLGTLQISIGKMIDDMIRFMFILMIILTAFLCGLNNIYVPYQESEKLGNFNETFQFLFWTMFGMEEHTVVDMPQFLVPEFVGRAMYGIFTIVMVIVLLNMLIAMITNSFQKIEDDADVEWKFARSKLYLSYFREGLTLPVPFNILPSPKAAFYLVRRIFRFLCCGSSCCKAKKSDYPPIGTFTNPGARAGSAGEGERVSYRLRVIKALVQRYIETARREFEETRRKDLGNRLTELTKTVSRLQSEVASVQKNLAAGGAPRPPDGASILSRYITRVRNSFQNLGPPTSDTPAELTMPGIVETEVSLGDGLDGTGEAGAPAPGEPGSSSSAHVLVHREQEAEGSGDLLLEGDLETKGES
T2 sequence (Q8NER1 whole entry, species assumed): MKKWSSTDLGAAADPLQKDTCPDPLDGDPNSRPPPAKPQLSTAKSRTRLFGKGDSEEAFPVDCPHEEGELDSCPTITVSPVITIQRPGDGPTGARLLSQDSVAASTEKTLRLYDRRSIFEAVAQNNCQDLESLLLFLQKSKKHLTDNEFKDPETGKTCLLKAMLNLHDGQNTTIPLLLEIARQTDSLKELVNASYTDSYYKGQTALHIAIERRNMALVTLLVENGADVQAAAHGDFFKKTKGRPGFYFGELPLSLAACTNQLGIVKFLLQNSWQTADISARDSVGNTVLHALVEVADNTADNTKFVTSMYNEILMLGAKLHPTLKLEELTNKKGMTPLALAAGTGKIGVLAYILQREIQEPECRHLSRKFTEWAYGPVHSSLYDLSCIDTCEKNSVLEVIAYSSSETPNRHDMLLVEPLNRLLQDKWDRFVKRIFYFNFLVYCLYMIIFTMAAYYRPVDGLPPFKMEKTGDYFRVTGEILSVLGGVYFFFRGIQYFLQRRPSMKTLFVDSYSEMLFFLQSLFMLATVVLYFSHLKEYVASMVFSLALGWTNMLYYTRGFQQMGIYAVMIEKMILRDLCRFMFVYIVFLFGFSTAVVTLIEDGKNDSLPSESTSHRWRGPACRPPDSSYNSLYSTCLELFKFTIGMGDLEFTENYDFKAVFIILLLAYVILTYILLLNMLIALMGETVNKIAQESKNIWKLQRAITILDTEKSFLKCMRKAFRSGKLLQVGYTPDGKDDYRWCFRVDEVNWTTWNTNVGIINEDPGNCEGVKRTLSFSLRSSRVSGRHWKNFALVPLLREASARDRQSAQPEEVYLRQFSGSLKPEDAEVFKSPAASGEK
T3 sequence (Q8TD43 whole entry, species assumed): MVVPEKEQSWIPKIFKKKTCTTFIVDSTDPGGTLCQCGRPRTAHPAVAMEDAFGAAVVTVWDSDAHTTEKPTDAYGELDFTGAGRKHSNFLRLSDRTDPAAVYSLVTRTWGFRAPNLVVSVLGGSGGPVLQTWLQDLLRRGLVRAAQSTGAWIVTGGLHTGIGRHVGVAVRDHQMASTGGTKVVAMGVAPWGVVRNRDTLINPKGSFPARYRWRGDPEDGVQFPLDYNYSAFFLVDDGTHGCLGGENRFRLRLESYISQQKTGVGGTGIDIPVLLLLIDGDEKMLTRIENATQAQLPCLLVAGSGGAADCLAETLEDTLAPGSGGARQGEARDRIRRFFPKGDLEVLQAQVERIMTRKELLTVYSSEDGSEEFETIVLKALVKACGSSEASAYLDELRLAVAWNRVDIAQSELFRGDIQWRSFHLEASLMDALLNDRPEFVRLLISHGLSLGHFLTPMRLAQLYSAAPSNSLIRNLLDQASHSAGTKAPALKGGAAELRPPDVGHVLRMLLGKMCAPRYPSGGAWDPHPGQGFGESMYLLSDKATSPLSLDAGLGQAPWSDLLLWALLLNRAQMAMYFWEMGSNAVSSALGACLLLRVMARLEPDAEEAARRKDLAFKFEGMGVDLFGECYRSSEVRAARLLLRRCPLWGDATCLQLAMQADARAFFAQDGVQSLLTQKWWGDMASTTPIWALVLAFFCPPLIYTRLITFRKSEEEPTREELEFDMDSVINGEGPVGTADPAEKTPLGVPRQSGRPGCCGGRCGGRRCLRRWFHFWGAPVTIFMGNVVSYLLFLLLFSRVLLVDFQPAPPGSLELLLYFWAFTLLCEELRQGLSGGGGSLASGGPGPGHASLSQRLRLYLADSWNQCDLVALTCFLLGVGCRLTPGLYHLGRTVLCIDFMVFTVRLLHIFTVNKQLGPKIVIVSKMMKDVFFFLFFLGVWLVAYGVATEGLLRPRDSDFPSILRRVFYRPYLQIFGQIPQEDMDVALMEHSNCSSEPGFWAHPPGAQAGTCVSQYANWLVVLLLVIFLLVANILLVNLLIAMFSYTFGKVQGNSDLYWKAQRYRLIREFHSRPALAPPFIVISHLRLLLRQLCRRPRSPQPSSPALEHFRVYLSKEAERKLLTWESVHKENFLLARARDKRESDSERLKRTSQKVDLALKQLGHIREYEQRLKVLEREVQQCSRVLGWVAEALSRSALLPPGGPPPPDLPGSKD
Chain of TRPM7 (Q923J1 whole entry): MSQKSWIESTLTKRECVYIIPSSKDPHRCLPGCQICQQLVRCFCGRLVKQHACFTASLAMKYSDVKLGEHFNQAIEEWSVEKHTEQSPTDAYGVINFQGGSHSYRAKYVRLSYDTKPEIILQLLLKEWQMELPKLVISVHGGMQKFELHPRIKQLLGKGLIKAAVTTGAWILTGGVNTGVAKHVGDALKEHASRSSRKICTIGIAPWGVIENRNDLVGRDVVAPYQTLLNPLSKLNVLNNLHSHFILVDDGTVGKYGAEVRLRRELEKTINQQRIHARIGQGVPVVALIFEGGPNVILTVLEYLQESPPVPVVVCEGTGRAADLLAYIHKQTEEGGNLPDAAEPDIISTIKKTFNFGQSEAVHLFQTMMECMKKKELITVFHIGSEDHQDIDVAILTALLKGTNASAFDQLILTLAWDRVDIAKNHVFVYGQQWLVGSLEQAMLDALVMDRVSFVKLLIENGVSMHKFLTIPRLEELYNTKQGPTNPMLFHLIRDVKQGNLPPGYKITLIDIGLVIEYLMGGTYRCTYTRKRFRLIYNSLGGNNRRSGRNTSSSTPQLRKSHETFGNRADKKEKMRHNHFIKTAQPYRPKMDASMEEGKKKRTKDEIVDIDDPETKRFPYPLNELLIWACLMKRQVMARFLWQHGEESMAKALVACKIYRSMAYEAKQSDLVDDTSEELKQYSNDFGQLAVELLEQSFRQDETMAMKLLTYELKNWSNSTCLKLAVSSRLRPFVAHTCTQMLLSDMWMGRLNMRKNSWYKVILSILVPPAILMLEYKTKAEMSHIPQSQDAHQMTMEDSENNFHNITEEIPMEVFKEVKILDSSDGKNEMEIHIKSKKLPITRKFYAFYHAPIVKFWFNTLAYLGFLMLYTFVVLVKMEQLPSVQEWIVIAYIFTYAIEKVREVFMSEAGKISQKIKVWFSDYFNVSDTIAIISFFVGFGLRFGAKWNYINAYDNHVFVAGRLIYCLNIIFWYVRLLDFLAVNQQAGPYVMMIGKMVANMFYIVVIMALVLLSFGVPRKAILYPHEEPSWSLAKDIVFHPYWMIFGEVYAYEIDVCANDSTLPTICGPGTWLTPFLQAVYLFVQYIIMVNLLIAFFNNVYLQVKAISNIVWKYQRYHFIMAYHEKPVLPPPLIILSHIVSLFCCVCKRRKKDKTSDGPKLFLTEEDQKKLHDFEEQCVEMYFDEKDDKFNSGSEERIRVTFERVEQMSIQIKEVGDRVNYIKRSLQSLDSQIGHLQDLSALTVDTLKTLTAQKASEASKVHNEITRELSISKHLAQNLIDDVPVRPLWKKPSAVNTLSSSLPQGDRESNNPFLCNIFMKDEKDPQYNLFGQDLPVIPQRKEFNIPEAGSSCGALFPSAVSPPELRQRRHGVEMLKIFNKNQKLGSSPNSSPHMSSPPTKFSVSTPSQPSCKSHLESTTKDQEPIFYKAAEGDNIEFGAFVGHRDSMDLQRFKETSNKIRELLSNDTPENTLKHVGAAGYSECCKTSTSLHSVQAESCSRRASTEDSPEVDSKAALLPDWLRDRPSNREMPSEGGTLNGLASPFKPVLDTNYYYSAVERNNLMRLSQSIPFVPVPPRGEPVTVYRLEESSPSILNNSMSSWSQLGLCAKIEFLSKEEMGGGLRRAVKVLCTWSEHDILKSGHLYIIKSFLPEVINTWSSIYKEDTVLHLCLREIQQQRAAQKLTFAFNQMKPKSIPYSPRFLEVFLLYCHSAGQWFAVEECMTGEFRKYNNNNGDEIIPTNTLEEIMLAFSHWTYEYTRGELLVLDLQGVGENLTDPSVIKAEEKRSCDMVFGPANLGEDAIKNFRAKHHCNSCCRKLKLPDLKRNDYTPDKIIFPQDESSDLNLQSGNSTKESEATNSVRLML

With `COc1cc2c(cc1OC)C(c1sc3ccccc3c1Cl)=NCC2` [Compound M6], the IC50 came to 36.3 µM in data set [1] (72 h, Y79, Exp 1, 72 hours, read-out: IC50); 38.6 µM in data set [1] (72 h, Y79, Exp 2, 72 hours, read-out: IC50); 37.5 µM in data set [1] (Y79, mean of Exp 1 and Exp 2, read-out: Mean IC50); 14.7 µM in [4] (HCT-116, 72 h, HCT-116, Exp 1, 72 hours, read-out: IC50); 17.2 µM in data set [4] (HCT-116, 72 h, HCT-116, Exp 2, 72 hours, read-out: IC50); 16 µM in data set [4] (HCT-116, HCT-116, mean of Exp 1 and Exp 2, read-out: Mean IC50). For the same compound, the IC50 in data set [7] (NCI-H292, 72 h, H292, Exp 1, 72 hours, read-out: IC50) came to 18.5 µM; in [7] (NCI-H292, 72 h, H292, Exp 2, 72 hours, read-out: IC50), 15.9 µM; in data set [7] (NCI-H292, H292, mean of Exp 1 and Exp 2, read-out: Mean IC50), 17.2 µM. Moreover, in data set [1] (Y79, 1-7.5 μM, 48-72 hours), the “death of cancer cells by MTT assay” value was “resulted in the death of the cancer cells”. Moreover, the “fluorescence of cells migrated off the retinal explant” value in [2] (1 μM, 12 days, FIG. 78) is listed as “significantly lower Y79 fluorescence off of the retinal explant”. In addition, in [2] (5 μM, 2 weeks), the “amount of Y79 cells on cultured retinas (fluorescence)” value is listed as “reduce the amount of Y79 cells”. In addition, the “ability of Y79 cells to migrate off of the retina” value in data set [2] (5 μM, 2 weeks, FIG. 77 panel B) is listed as “significantly reduced the ability of Y79 cells to migrate off of the retina”. The “Demonstrated Reduction of Proliferation at or below 10 μM Inhibitor concentration” value in data set [3] is on record as “DMS456 lung cancer”; in data set [4] (HCT-116, >20% inhibition at 48-96 hours, MTT, SRB, luminescence or BrDU) it was “HCT-116”; in [7] (H292, >20% inhibition at 48-96 hours, MTT, SRB, luminescence or BrDU), “H292 non small cell lung cancer”. Also, the “proliferation (BrDU incorporation)” value in data set [5] was “significantly reduce proliferation”. Moreover, the MTD in [6] was at least 20 mg/kg.
Turning to `Cc1c(Cc2ccc(Cl)c(Cl)c2)c(=O)oc2cc(O)ccc12` [Compound M21], the “effect on agonist-induced Ca2+ changes” value in [8], in data set [9], in [10], in [14] and in data set [16] was “no effect” each time. In data set [11], the IC50 lay in the range of 1 to 2 µM. The “retinal damage (histology)” value in data set [12] is given as “significant reduction in retinal damage”. Moreover, the “number of cells exhibiting DNA fragmentation (TUNEL)” value in data set [13] is “significantly reduced the number of cells exhibiting DNA fragmentation”. Also, the “infarct volume (TTC)” value in data set [13] (24 h) is recorded as “significantly reduced infarct volume”. Moreover, the “effect on NMDA receptor currents” value in [15] is given as “no effect”.
With `O=C(Nc1ccc(F)cc1)C(Sc1ccc(Cl)cc1)c1ccccc1` (stereo not drawn) [Compound M11], the entries for the “toxicity (PI uptake)” value in data set [17] (5 μM) and in data set [17] (10 μM) were “No toxicity” and “slight toxicity”, respectively.

Values taken from patent US8680137B2, “Agents and methods for treating ischemic and other diseases” (Nono Inc., priority 2009, dated 2014).
